In PubChem BioAssay AID258 (DTP/NCI, 2004):
Values joined by “and” are separate entries in the source; they are usually repeats but may differ in a detail not shown here. Identical values can stand only once. Toxic doses and inconclusive results are not listed.

System: CD2F1 mice, L1210 leukemia sc, survival T/C
Test: NCI In Vivo Anticancer Drug Screen. Data for tumor model L1210 Leukemia (subcutaneous) in CD2F1 (CDF1) mice
Details: endpoint: median survival time, higher = longer survival
Procedure, shortened: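 Mice with transplanted tumor dosed; survival/tumor size read; T/C vs vehicle controls.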

[1] = dose: 108.0 mg/kg/injection, schedule: Q01DX Z (sc), vehicle: methylcellulose (MC)
[2] = dose: 180.0 mg/kg/injection, schedule: Q01DX Z (sc), vehicle: methylcellulose (MC)
[3] = dose: 300.0 mg/kg/injection, schedule: Q01DX Z (sc), vehicle: methylcellulose (MC)
[4] = dose: 833.0 mg/kg/injection, schedule: Q01DX Z (sc), vehicle: methylcellulose (MC)

S=c1nc[nH]c2c1ncn2C1CCCC1
T/C [1]: 100 % of control
T/C [2]: 100 % of control
T/C [3]: 100 % of control
T/C (dose: 500.0 mg/kg/injection, schedule: Q01DX Z (sc), vehicle: methylcellulose (MC)): 100 % of control
T/C [4]: 100 % of control
T/C (dose: 1388.0 mg/kg/injection, schedule: Q01DX Z (sc), vehicle: methylcellulose (MC)): 100 % of control

CSc1nc2[nH]cnc(=S)c2[nH]1
T/C (dose: 23.0 mg/kg/injection, schedule: Q01DX Z (sc), vehicle: methylcellulose (MC)): 90 % of control
T/C (dose: 39.0 mg/kg/injection, schedule: Q01DX Z (sc), vehicle: methylcellulose (MC)): 100 % of control
T/C (dose: 65.0 mg/kg/injection, schedule: Q01DX Z (sc), vehicle: methylcellulose (MC)): 100 % of control
T/C [1]: 100 % of control
T/C [2]: 100 % of control
T/C [3]: 100 % of control

O=P1(NCCCl)OCCCN1CCCl (stereo not drawn)
T/C (dose: 6.25 mg/kg/injection, schedule: Q01DX009 (ip), vehicle: saline): 122 % of control
T/C (dose: 6.25 mg/kg/injection, schedule: Q01DX009 (sc), vehicle: saline): 116 % of control
T/C (dose: 12.5 mg/kg/injection, schedule: Q01DX009 (ip), vehicle: saline): 151 % of control
T/C (dose: 25.0 mg/kg/injection, schedule: Q01DX009 (ip), vehicle: saline): 161 % of control
T/C (dose: 50.0 mg/kg/injection, schedule: Q01DX009 (ip), vehicle: saline): 169 % of control and 188 % of control
T/C (dose: 66.7 mg/kg/injection, schedule: Q01DX009 (ip), vehicle: saline): 179 % of control
T/C (dose: 66.7 mg/kg/injection, schedule: Q01DX009 (sc), vehicle: saline): 197 % of control
T/C (dose: 100.0 mg/kg/injection, schedule: Q01DX009 (ip), vehicle: saline): 188 % of control and 235 % of control
T/C (dose: 100.0 mg/kg/injection, schedule: Q01DX009 (sc), vehicle: saline): 155 % of control and 182 % of control and 232 % of control
T/C (dose: 133.4 mg/kg/injection, schedule: Q01DX009 (sc), vehicle: saline): 265 % of control
T/C (dose: 150.0 mg/kg/injection, schedule: Q01DX009 (ip), vehicle: saline): 247 % of control
T/C (dose: 150.0 mg/kg/injection, schedule: Q01DX009 (sc), vehicle: saline): 258 % of control
T/C (dose: 200.0 mg/kg/injection, schedule: Q01DX001 (sc), vehicle: water): 187 % of control and 188 % of control
T/C (dose: 300.0 mg/kg/injection, schedule: Q01DX001 (sc), vehicle: water): 211 % of control and 217 % of control
T/C (dose: 300.0 mg/kg/injection, schedule: Q01DX009 (sc), vehicle: saline): 176 % of control
T/C (dose: 400.0 mg/kg/injection, schedule: Q01DX001 (sc), vehicle: water): 241 % of control
T/C (dose: 400.0 mg/kg/injection, schedule: Q01DX009 (ip), vehicle: saline): 98 % of control
T/C (dose: 400.0 mg/kg/injection, schedule: Q01DX009 (sc), vehicle: saline): 108 % of control
T/C (dose: 500.0 mg/kg/injection, schedule: Q01DX001 (sc), vehicle: water): 241 % of control and 244 % of control
T/C (dose: 600.0 mg/kg/injection, schedule: Q01DX001 (sc), vehicle: water): 300 % of control and 302 % of control
T/C (dose: 700.0 mg/kg/injection, schedule: Q01DX001 (sc), vehicle: water): 264 % of control and 290 % of control

[Cl][Pt+2][Cl].[NH-]CC1(C[NH-])CCC1
T/C (dose: 3.12 mg/kg/injection, schedule: Q01DX009 (ip), vehicle: Klucel (hydroxypropylcellulose) (HPC)): 158 % of control

CC1CN=C(c2ccc(NC(=O)c3ccc(C(=O)Nc4ccc(C5=NCC(C)N5)cc4)cc3)cc2)N1 (stereo not drawn)
T/C (dose: 1.8 mg/kg/injection, schedule: Q01DX Z (sc), vehicle: water): 115 % of control
T/C (dose: 3.0 mg/kg/injection, schedule: Q01DX Z (sc), vehicle: water): 155 % of control
T/C (dose: 5.0 mg/kg/injection, schedule: Q01DX Z (sc), vehicle: water): 240 % of control
T/C (dose: 8.4 mg/kg/injection, schedule: Q01DX Z (sc), vehicle: water): 255 % of control
T/C (dose: 14.0 mg/kg/injection, schedule: Q01DX Z (sc), vehicle: water): 230 % of control

CCn1cnc2c(=S)nc[nH]c21
T/C [4]: 120 % of control

Nc1ncnc2c1ccn2C1OC(CO)C(O)C1O (stereo not drawn)
T/C (dose: 0.25 mg/kg/injection, schedule: Q01DX009 (ip), vehicle: Klucel (hydroxypropylcellulose) (HPC)): 102 % of control
T/C (dose: 0.5 mg/kg/injection, schedule: Q01DX009 (ip), vehicle: Klucel (hydroxypropylcellulose) (HPC)): 97 % of control
T/C (dose: 1.0 mg/kg/injection, schedule: Q01DX009 (ip), vehicle: Klucel (hydroxypropylcellulose) (HPC)): 92 % of control
T/C (dose: 2.0 mg/kg/injection, schedule: Q01DX009 (ip), vehicle: Klucel (hydroxypropylcellulose) (HPC)): 95 % of control
T/C (dose: 4.0 mg/kg/injection, schedule: Q01DX009 (ip), vehicle: Klucel (hydroxypropylcellulose) (HPC)): 97 % of control
T/C (dose: 8.0 mg/kg/injection, schedule: Q01DX009 (ip), vehicle: Klucel (hydroxypropylcellulose) (HPC)): 102 % of control
T/C (dose: 16.0 mg/kg/injection, schedule: Q01DX009 (ip), vehicle: Klucel (hydroxypropylcellulose) (HPC)): 101 % of control

Oc1cc(CN(CCCl)CCCl)c(O)cc1CN(CCCl)CCCl
T/C (dose: 23.4 mg/kg/injection, schedule: Q01DX Z (sc), vehicle: methylcellulose (MC)): 105 % of control
T/C (dose: 38.9 mg/kg/injection, schedule: Q01DX Z (sc), vehicle: methylcellulose (MC)): 110 % of control
T/C (dose: 64.8 mg/kg/injection, schedule: Q01DX Z (sc), vehicle: methylcellulose (MC)): 115 % of control
T/C [1]: 115 % of control
T/C [2]: 105 % of control

CC[C@@]1(O)C(=O)OCc2c1cc1n(c2=O)Cc2cc3ccccc3nc2-1
T/C (dose: 0.13 mg/kg/injection, schedule: Q01DX Z (sc), vehicle: carboxymethylcellulose (CMC)): 111 % of control
T/C (dose: 0.22 mg/kg/injection, schedule: Q01DX Z (sc), vehicle: carboxymethylcellulose (CMC)): 111 % of control
T/C (dose: 0.6 mg/kg/injection, schedule: Q01DX Z (sc), vehicle: carboxymethylcellulose (CMC)): 111 % of control
T/C (dose: 1.0 mg/kg/injection, schedule: Q01DX Z (sc), vehicle: carboxymethylcellulose (CMC)): 122 % of control

Cc1c(N)nc([C@H](CC(N)=O)NC[C@H](N)C(N)=O)nc1C(=O)N[C@H](C(=O)N[C@H](C)[C@@H](O)[C@H](C)C(=O)N[C@H](C(=O)NCCc1nc(-c2nc(C(=O)NCCC[S+](C)C)cs2)cs1)[C@@H](C)O)C(OC1OC(CO)C(O)C(O)C1OC1OC(CO)C(O)C(OC(N)=O)C1O)c1cnc[nH]1 (stereo partly drawn)
T/C (dose: 1.0 mg/kg/injection, schedule: Q01DX009 (ip), vehicle: saline): 100 % of control
T/C (dose: 2.0 mg/kg/injection, schedule: Q01DX009 (ip), vehicle: saline): 100 % of control and 101 % of control and 107 % of control
T/C (dose: 2.0 mg/kg/injection, schedule: Q01DX009 (sc), vehicle: saline): 110 % of control
T/C (dose: 4.0 mg/kg/injection, schedule: Q01DX009 (ip), vehicle: saline): 100 % of control and 105 % of control and 109 % of control
T/C (dose: 4.0 mg/kg/injection, schedule: Q01DX009 (sc), vehicle: saline): 102 % of control
T/C (dose: 8.0 mg/kg/injection, schedule: Q01DX009 (ip), vehicle: saline): 100 % of control and 107 % of control and 109 % of control
T/C (dose: 8.0 mg/kg/injection, schedule: Q01DX009 (sc), vehicle: saline): 102 % of control
T/C (dose: 16.0 mg/kg/injection, schedule: Q01DX009 (ip), vehicle: saline): 104 % of control and 107 % of control and 112 % of control
T/C (dose: 16.0 mg/kg/injection, schedule: Q01DX009 (sc), vehicle: saline): 106 % of control
T/C (dose: 32.0 mg/kg/injection, schedule: Q01DX009 (ip), vehicle: saline): 102 % of control and 109 % of control and 112 % of control
T/C (dose: 32.0 mg/kg/injection, schedule: Q01DX009 (sc), vehicle: saline): 100 % of control
T/C (dose: 64.0 mg/kg/injection, schedule: Q01DX009 (ip), vehicle: saline): 112 % of control
